This note sets out measurements from US20240376121A1, “COMPOUNDS AND USES THEREOF” (Foghorn Therapeutics Inc., priority 2021, published 2024).

Test [1] deals with T1, HiBit-BRM fusion protein (Homo sapiens, UniProt P51531).
T1 construct: expressed in transfected cells
Put plainly: HiBiT-BRM cell-based degradation assay (Nano-Glo HiBiT Lytic Detection). Conditions: stable HeLa cell line expressing HiBiT-BRM, 24 h incubation; for BRM HiBit Degradation Maximum (%): top dose 30 μM; for DC50: read-out: BRM HiBit Degradation IC50. The method, boiled down:
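HeLa cells stably expressing HiBiT-BRM were dosed with compounds (10-point 3-fold dilutions, 30 μM final top dose, duplicate) for 24 h. HiBiT signal was read by lytic LgBiT complementation luminescence. Percent degradation was normalised to DMSO (high control) and 2 μM of a reference BRM/BRG1 degrader (low control).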
(In general: With HiBiT, luminescence reflects the tagged protein that the partner subunit can reach.)

The target in test [2] is T2, HiBit-BRG1 fusion protein (Homo sapiens, UniProt P51532).
T2 construct: expressed in transfected cells
T2 sequence (P51532 whole entry, the tested form may be a part): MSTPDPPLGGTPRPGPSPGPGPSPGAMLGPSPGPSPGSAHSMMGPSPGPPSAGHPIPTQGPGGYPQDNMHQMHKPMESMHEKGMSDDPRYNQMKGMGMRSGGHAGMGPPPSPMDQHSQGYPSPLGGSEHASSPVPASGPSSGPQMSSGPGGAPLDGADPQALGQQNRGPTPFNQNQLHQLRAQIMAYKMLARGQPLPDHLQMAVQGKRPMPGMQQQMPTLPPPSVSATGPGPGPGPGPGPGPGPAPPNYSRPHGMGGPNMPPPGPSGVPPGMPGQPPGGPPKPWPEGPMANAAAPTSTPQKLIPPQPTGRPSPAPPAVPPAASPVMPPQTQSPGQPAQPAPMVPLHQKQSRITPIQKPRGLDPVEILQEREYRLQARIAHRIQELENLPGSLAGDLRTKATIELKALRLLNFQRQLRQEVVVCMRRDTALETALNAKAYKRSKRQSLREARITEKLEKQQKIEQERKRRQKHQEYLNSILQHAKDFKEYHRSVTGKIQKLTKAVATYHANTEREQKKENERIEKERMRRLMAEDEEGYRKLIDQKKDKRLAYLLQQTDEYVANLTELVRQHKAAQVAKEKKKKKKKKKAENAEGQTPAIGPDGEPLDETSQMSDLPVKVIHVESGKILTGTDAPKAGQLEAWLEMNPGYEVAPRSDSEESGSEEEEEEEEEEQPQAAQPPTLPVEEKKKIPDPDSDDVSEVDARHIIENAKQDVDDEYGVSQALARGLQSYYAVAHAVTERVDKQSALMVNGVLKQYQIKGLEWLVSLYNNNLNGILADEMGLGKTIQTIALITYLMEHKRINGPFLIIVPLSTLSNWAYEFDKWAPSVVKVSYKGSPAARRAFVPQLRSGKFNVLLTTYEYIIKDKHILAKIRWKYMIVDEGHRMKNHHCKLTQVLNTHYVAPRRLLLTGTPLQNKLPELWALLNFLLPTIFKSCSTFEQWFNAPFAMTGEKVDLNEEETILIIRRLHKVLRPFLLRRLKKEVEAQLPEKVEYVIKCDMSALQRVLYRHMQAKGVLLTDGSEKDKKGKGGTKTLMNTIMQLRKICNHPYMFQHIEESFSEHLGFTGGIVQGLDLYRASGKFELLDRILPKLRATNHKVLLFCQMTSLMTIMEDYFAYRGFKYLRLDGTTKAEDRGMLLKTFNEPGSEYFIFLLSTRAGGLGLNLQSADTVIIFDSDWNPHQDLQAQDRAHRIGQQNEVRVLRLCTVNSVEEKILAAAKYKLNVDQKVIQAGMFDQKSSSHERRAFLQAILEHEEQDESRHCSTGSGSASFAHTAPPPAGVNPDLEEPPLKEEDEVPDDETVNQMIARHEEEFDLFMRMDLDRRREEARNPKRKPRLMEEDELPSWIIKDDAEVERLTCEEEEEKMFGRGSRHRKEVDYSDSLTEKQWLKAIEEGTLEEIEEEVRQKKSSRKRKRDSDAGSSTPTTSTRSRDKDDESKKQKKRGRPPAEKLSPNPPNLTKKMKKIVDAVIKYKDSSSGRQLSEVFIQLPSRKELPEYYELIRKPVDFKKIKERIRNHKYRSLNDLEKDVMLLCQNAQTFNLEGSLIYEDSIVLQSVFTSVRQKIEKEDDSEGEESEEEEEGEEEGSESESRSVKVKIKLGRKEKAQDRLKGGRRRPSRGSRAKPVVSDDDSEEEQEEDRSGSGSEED
The test is described as follows: HiBiT-BRG1 cell-based degradation assay (Nano-Glo HiBiT Lytic Detection). Conditions: stable HeLa cell line expressing HiBit-BRG1 and LgBit, 24 h incubation; for Dmax: top dose 30 μM, read-out: BRG1 HiBit Degradation Maximum (%); for DC50: read-out: BRMG1 HiBit Degradation IC50. The method, boiled down:
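HeLa cells stably expressing HiBiT-BRG1 and LgBiT treated 24 h with 10-point 3-fold dilutions (top 30 μM, duplicate). Luminescence read after Nano-Glo HiBiT lytic reagent; % degradation relative to DMSO (high control) and 2 μM reference BRM/BRG1 degrader (low control).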

T1 sequence (P51531 whole entry, the tested form may be a part): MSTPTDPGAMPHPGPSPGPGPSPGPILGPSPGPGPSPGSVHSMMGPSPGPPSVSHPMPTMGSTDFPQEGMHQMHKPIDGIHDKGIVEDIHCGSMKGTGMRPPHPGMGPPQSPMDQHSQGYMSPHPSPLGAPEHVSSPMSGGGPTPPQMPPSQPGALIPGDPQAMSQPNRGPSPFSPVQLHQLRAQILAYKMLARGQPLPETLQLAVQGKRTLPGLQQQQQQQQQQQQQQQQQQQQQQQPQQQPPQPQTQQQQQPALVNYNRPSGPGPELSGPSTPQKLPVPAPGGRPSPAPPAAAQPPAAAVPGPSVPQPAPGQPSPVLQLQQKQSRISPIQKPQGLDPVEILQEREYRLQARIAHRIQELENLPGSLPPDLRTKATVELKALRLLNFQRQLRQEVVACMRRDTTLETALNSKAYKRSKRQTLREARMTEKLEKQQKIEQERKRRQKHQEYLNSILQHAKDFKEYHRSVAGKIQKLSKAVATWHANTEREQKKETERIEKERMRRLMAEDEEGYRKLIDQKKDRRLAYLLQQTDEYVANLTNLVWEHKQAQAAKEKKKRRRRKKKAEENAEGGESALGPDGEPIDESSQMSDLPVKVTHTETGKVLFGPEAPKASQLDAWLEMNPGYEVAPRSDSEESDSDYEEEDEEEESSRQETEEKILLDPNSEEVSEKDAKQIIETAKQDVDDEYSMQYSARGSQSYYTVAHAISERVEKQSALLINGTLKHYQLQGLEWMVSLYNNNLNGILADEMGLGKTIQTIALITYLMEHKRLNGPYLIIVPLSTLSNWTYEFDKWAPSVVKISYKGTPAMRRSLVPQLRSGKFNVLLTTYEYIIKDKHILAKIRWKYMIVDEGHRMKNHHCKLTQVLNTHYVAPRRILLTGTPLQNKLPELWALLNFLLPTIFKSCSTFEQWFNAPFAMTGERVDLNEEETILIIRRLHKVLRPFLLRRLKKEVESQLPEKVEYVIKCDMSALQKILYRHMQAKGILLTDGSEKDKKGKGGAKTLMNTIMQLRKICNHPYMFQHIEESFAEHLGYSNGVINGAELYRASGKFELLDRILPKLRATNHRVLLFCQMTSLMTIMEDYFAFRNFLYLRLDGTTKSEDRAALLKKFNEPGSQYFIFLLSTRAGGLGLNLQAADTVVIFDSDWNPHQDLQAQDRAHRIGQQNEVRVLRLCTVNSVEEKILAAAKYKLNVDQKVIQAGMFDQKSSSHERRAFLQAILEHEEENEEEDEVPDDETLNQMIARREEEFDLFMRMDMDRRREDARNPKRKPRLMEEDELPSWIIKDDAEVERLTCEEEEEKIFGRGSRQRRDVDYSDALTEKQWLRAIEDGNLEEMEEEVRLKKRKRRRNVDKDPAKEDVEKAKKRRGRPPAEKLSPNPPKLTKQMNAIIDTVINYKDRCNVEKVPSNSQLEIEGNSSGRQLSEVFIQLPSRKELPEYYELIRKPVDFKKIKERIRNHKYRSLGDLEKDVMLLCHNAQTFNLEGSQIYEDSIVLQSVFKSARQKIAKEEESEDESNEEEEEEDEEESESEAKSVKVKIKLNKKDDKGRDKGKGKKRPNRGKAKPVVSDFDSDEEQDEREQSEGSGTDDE

Regarding `Cc1ncsc1-c1ccc([C@H](C)NC(=O)[C@@H]2C[C@@H](O)CN2C(=O)[C@@H](c2cc(OCCN3CCC(c4sc5nnc(-c6ccccc6O)cc5c4Cl)CC3)no2)C(C)C)cc1` [Compound 90, (2S,4R)-1-((R)-2-(3-(2-(4-(5-chloro-3-(2-hydroxyphenyl)thieno[2,3-c]pyridazin-6-yl)piperidin-1-yl)ethoxy)isoxazol-5-yl)-3-methylbutanoyl)-4-hydroxy-N-((S)-1-(4-(4-methylthiazol-5-yl)phenyl)ethyl)pyrrolidine-2-carboxamide], in test [1], the “BRM HiBit Degradation Maximum (%)” value is recorded as “A (“A” indicates maximum degradation ≥ 75%)” and the DC50 is not below 0.01 µM. For the same compound, in test [2], the Dmax is less than 50% and the DC50 is not below 1 µM.

Turning to `Cc1ncsc1-c1ccc([C@H](C)NC(=O)[C@@H]2C[C@@H](O)CN2C(=O)[C@@H](c2cc(OCC(=O)N3CCc4sc5nnc(-c6ccccc6O)cc5c4C3)no2)C(C)C)cc1` [Compound 91, (2S,4R)-4-hydroxy-1-((R)-2-(3-(2-(3-(2-hydroxyphenyl)-7,8-dihydropyrido[3′,4′:4, 5]thieno[2,3-c]pyridazin-6(5H)-yl)-2-oxoethoxy)isoxazol-5-yl)-3-methylbutanoyl)-N-((S)-1-(4-(4-methylthiazol-5-yl)phenyl)ethyl)pyrrolidine-2-carboxamide], in test [1], the “BRM HiBit Degradation Maximum (%)” value is given as “C (“C” indicates maximum degradation < 50%)” and the DC50 was not below 1 µM. Besides, in test [2], the Dmax was less than 50% and the DC50 was not below 1 µM.

As to `Cc1ncsc1-c1ccc([C@H](C)NC(=O)[C@@H]2C[C@@H](O)CN2C(=O)[C@@H](c2cc(N3CCC(CN4CCc5sc6nnc(-c7ccccc7O)cc6c5C4)CC3)no2)C(C)C)cc1` [Compound 92, (2S,4R)-4-hydroxy-1-((R)-2-(3-(4-((3-(2-hydroxyphenyl)-7,8-dihydropyrido[3′,4′:4,5]thieno[2,3-c]pyridazin-6(5H)-yl)methyl)piperidin-1-yl)isoxazol-5-yl)-3-methylbutanoyl)-N-((S)-1-(4-(4-methylthiazol-5-yl)phenyl)ethyl)pyrrolidine-2-carboxamide], in test [1], the “BRM HiBit Degradation Maximum (%)” value is on record as “C (“C” indicates maximum degradation < 50%)” and the DC50 was not below 1 µM. Moreover, in test [2], the Dmax was not below 50% and the DC50 was not below 1 µM.

For `Cc1ncsc1-c1ccc([C@H](C)NC(=O)[C@@H]2C[C@@H](O)CN2C(=O)[C@@H](c2cc(OCC(=O)N3CCC(c4sc5nnc(-c6ccccc6O)cc5c4C)CC3)no2)C(C)C)cc1` [Compound 93, (2S,4R)-4-hydroxy-1-((R)-2-(3-(2-(4-(3-(2-hydroxyphenyl)-5-methylthieno[2,3-c]pyridazin-6-yl)piperidin-1-yl)-2-oxoethoxy)isoxazol-5-yl)-3-methylbutanoyl)-N-((S)-1-(4-(4-methylthiazol-5-yl)phenyl)ethyl)pyrrolidine-2-carboxamide], in test [1], the “BRM HiBit Degradation Maximum (%)” value was “A (“A” indicates maximum degradation ≥ 75%)” and the DC50 is not below 0.01 µM. Further, in test [2], the Dmax was less than 50% and the DC50 was not below 1 µM.

For the compound `Cc1ncsc1-c1ccc([C@H](C)NC(=O)[C@@H]2C[C@@H](O)CN2C(=O)[C@@H](c2cc(N3CCC(CN4CCC(c5sc6nnc(-c7ccccc7O)cc6c5C)CC4)CC3)no2)C(C)C)cc1` [Compound 94, (2S,4R)-4-hydroxy-1-((R)-2-(3-(4-((4-(3-(2-hydroxyphenyl)-5-methylthieno[2,3-c]pyridazin-6-yl)piperidin-1-yl)methyl)piperidin-1-yl)isoxazol-5-yl)-3-methylbutanoyl)-N-((S)-1-(4-(4-methylthiazol-5-yl)phenyl)ethyl)pyrrolidine-2-carboxamide], in test [1], the “BRM HiBit Degradation Maximum (%)” value was “A (“A” indicates maximum degradation ≥ 75%)” and the DC50 was less than 0.01 µM. Besides, in test [2], the Dmax was less than 50% and the DC50 is not below 1 µM.
